# Key:
# NF-κB = assay: Assay for NF-κB inhibition (luciferase reporter) in PMA-induced SW1353 cells; format: cell-based; conditions: PMA-induced human chondrosarcoma cells (SW1353); NA = not active at 100 µM
# Experimental: The assay was performed in human chondrosarcoma cells (SW1353, obtained from American Type Culture Collection (ATCC), Manassas, VA, USA). Cells were cultured in 1:1 mixture of DMEM/F12 supplemented with 10% fetal bovine serum (FBS), 100 U/mL penicillin G sodium, and 100 μg/mL streptomycin at 37 °C in an atmosphere of 5% CO2 and 95% humidity. Cells (1.2 × 10^7) were washed once in an antibiotic and FBS-free DMEM/F12, and then resuspended in 500 μL of antibiotic-free DMEM/F12 containing 2.5% FBS. NF-κB luciferase plasmid construct was added to the cell suspension at a concentration of 50 μg/mL and incubated for 5 min at room temperature. The cells were electroporated at 160 V and one 70-ms pulse using BTX disposable cuvettes model 640 (4-mm gap) in a BTX Electro Square Porator T 820 (BTX I, San Diego, CA, USA). The transfected cells were plated to the wells of 96-well plates at a density of 1.25 × 10^5 cells per well. After 24 h, cells were treated with different concentrations of test compound for 30 min before the addition of PMA (70 ng/mL) and incubated for 8 h. Luciferase activity was measured using the Luciferase Assay kit (Promega). Light output was detected on a SpectraMax plate reader. Percent inhibition of luciferase activity was calculated as compared to vehicle control, and IC50 values were obtained from concentration response curves. Parthenolide was used as positive control.
# iNOS = assay: Assay for iNOS inhibition (nitrite by Griess reagent) in LPS-induced macrophages; format: cell-based; conditions: Mus musculus, RAW264.7; LPS-induced RAW 264.7 macrophages; NA = not active at 50 µM
# Experimental: The assay was performed in mouse macrophages (RAW264.7, obtained from ATCC)) cultured in phenol red free RPMI medium supplemented with 10% bovine calf serum and 100 U/mL penicillin G sodium, and 100 μg/mL streptomycin at 37 °C in an atmosphere of 5% CO2 and 95% humidity. Cells were seeded in 96-well plates (50,000 cells/well) and incubated for 24 h for a confluency of 75% or more. Test samples diluted in serum free medium were added, and after 30 min of incubation, LPS (5 μg/mL) was added and cells were further incubated for 24 h. The concentration of nitric oxide (NO) was determined by measuring the level of nitrite in the cell culture supernatant by using Griess reagent. Percent inhibition of nitrite production by the test compound was calculated in comparison to the vehicle control. IC50 values were obtained from concentration response curves. Parthenolide was used as a positive control.
# Cryptococcus neoformans = system: Cryptococcus neoformans; set-up: method as in PMID 27584935; conditions: against Cryptococcus neoformans; cited from earlier work
SMILES,IC50 (NF-κB) [µM],IC50 (iNOS) [µM],in vitro antifungal activity (Cryptococcus neoformans)
CC(C)C(=O)c1c(O)cc(O)cc1O [Compound 3],90 ± 14.1,,
"COCOc1cc(OCOC)c(C(=O)C(C)C)c(O)c1Cc1ccc(Br)cc1 [Compound 5, 1-[3-(4-Bromo-benzyl)-2-hydroxy-4,6-bis-methoxymethoxy-phenyl]-2-methyl-propan-1-one]",29 ± 15.5,50,
"CC(C)C(=O)c1c(O)cc(O)c(Cc2ccc(CN3CCCCC3)cc2)c1O [Compound 7, 2-Methyl-1-[2,4,6-trihydroxy-3-(4-piperidin-1-ylmethyl-benzyl)-phenyl]-propan-1-one]",,49 ± 1.4,
"CC(C)C(=O)c1c(O)cc(O)c(Cc2ccc(Br)cc2)c1O [Compound 4, 1-[3-(4-Bromo-benzyl)-2,4,6-trihydroxy-phenyl]-2-methyl-propan-1-one]",37.5 ± 3.5,19.5 ± 0.7,
"CC(C)C(=O)c1c(O)cc(O)c(Cc2ccc(Cc3c(O)cc(O)c(C(=O)C(C)C)c3O)cc2)c1O [Compound 6, 2-Methyl-1-{2,4,6-trihydroxy-3-[4-(2,4,6-trihydroxy-3-isobutyryl-benzyl)-benzyl]-phenyl}-propan-1-one]",85 ± 21.2,19 ± 1.4,
CC(=O)c1c(O)cc(O)c(C(C)=O)c1O [Compound 2],34 ± 8.5,19 ± 1.4,potent
"C=C1C(=O)O[C@H]2[C@H]1CC/C(C)=C/CC[C@@]1(C)O[C@@H]21 [Parthenolide, reference compound]",20.5 ± 2.9,2.5 ± 0.2,
